From ChEMBL document CHEMBL5154795, “Exploring the structure-activity relationships of diphenylurea as an antibacterial scaffold active against methicillin- and vancomycin-resistant Staphylococcus aureus” (Eur J Med Chem, 2022) come the findings set out here.

Data set [1] deals with Staphylococcus aureus. The data set is described as follows: Potentiation of vancomycin-induced antibacterial activity against vancomycin-resistant Staphylococcus aureus 2 assessed as vancomycin MIC at 0.5 times MIC incubated for 18 to 20 hrs by broth microdilution method. It is filed as functional. Particulars: time 18-20 hrs.
Data set [2] can be described thus: Hemolytic activity in rabbit erythrocytes at 32 ug/ml incubated for 30 min by absorbance based analysis relative to control. It is filed as toxicity, cell-based, Oryctolagus cuniculus, Erythrocyte. Particulars: at 32 µg/mL, read-out: Activity.
Data set [3] can be described thus: Hemolytic activity in rabbit erythrocytes at 64 ug/ml incubated for 30 min by absorbance based analysis relative to control. It is filed as toxicity, cell-based, Oryctolagus cuniculus, Erythrocyte. Particulars: at 64 µg/mL, read-out: Activity.
In data set [4] the test system is Staphylococcus aureus. The data set can be described thus: Antibacterial activity against methicillin-resistant Staphylococcus aureus NRS 123 (USA400) incubated for 18 to 20 hrs by broth microdilution method. In kind it is functional. The settings on record: time 18-20 hrs.
The test system of data set [5] is Caco-2. The data set is described as follows: Cytotoxicity against human Caco-2 cells assessed as reduction in cell viability at 64 ug/ml incubated for 24 hrs by MTS assay. In kind it is toxicity, cell-based. The settings on record: caco-2, 24 h, dose 64 µg/ml.
In data set [6] the test system is Staphylococcus aureus. The data set is described as follows: Antibacterial activity against Vancomycin-resistant Staphylococcus aureus 9 incubated for 18 to 20 hrs by broth microdilution method. It is filed as functional. The settings on record: time 18-20 hrs.
Data set [7] concerns Staphylococcus aureus. The data set is described as follows: Antibacterial activity against Vancomycin-resistant Staphylococcus aureus 10 incubated for 18 to 20 hrs by broth microdilution method. In kind it is functional. Particulars: time 18-20 hrs.
For data set [8], the system named is Staphylococcus aureus. The data set can be described thus: Antibacterial activity against methicillin-resistant Staphylococcus aureus NRS 386 (USA700) incubated for 18 to 20 hrs by broth microdilution method. In kind it is functional. Particulars: time 18-20 hrs.
Data set [9] concerns Staphylococcus epidermidis. The data set is described as follows: Antibacterial activity against Staphylococcus epidermidis NRS 101 incubated for 18 to 20 hrs by broth microdilution method. In kind it is functional. Particulars: time 18-20 hrs.
The subject of data set [10] is Staphylococcus aureus. The data set is described as follows: Antibacterial activity against methicillin-resistant Staphylococcus aureus NRS 385 (USA500) incubated for 18 to 20 hrs by broth microdilution method. In kind it is functional. The settings on record: time 18-20 hrs.
Data set [11] has as its system Staphylococcus aureus. The data set can be described thus: Antibacterial activity against methicillin-sensitive Staphylococcus aureus ATCC 6538 incubated for 18 to 20 hrs by broth microdilution method. In kind it is functional. Particulars: time 18-20 hrs.
Data set [12] deals with Staphylococcus aureus. The data set is described as follows: Antibacterial activity against methicillin-resistant Staphylococcus aureus USA300 infected in BALB/c mouse assessed as recovery of body weight loss administered 72 hrs post infection topically twice daily for 4 days. It is filed as functional, organism-based. Particulars: time 4.0 day.
Data set [13] has as its system Staphylococcus aureus. The data set can be described thus: Potentiation of vancomycin-induced antibacterial activity against vancomycin-resistant Staphylococcus aureus 3 assessed as vancomycin MIC at 0.5 times MIC incubated for 18 to 20 hrs by broth microdilution method. It is filed as functional. The settings on record: time 18-20 hrs.
Data set [14] has as its system Staphylococcus aureus. The data set can be described thus: Antibacterial activity against methicillin-resistant Staphylococcus aureus USA400 NRS 123 assessed as time of post-antibiotic effect at 5 times MIC incubated for 2 hrs followed by compound washout and measured every single 1 hr. It is filed as functional.
Data set [15] concerns Staphylococcus aureus. The data set can be described thus: Antibacterial activity against methicillin-resistant Staphylococcus aureus USA300 infected in BALB/c mouse assessed as reduction in bacterial count in spleen administered 72 hrs post infection topically twice daily for 4 days. It is filed as functional, organism-based. The settings on record: time 4.0 day.
The subject of another data set is Erythrocyte. The data set is described as follows: Hemolytic activity in rabbit erythrocytes at 128 ug/ml incubated for 30 min by absorbance based analysis. In kind it is toxicity, cell-based, Oryctolagus cuniculus. Particulars: 0.5 h, dose 128 µg/ml.
Data set [16] has as its system Staphylococcus aureus. The data set can be described thus: Antibacterial activity against methicillin-resistant Staphylococcus aureus NRS 119 incubated for 18 to 20 hrs by broth microdilution method. It is filed as functional. Particulars: time 18-20 hrs.
In data set [17] the test system is Staphylococcus aureus. The data set can be described thus: Antibacterial activity against methicillin-resistant Staphylococcus aureus NRS 384 (USA300) incubated for 18 to 20 hrs by broth microdilution method. The settings on record: time 18-20 hrs. In kind it is functional.
Data set [18] deals with Staphylococcus aureus. The data set is described as follows: Potentiation of vancomycin-induced antibacterial activity against vancomycin-resistant Staphylococcus aureus 9 assessed as vancomycin MIC at 0.5 times MIC incubated for 18 to 20 hrs by broth microdilution method. In kind it is functional. Particulars: time 18-20 hrs.
Data set [19] concerns Staphylococcus aureus. The data set can be described thus: Antibacterial activity against Vancomycin-resistant Staphylococcus aureus 12 incubated for 18 to 20 hrs by broth microdilution method. It is filed as functional. Particulars: time 18-20 hrs.
In data set [20] the test system is Staphylococcus aureus. The data set can be described thus: Potentiation of vancomycin-induced antibacterial activity against vancomycin-resistant Staphylococcus aureus 10 assessed as vancomycin MIC at 0.5 times MIC incubated for 18 to 20 hrs by broth microdilution method. It is filed as functional. The settings on record: time 18-20 hrs.
For data set [21], the system named is Caco-2. The data set is described as follows: Cytotoxicity against human Caco-2 cells at 128 ug/ml incubated for 24 hrs by MTS assay. It is filed as toxicity, cell-based. Particulars: caco-2, 24 h, dose 128 µg/ml.
For data set [22], the system named is Staphylococcus aureus. The data set can be described thus: Antibacterial activity against methicillin-sensitive Staphylococcus aureus NRS 107 incubated for 18 to 20 hrs by broth microdilution method. Particulars: time 18-20 hrs. It is filed as functional.
Data set [23] concerns Staphylococcus aureus. The data set can be described thus: Potentiation of vancomycin-induced antibacterial activity against vancomycin-resistant Staphylococcus aureus 3b assessed as vancomycin MIC at 0.5 times MIC incubated for 18 to 20 hrs by broth microdilution method. Particulars: time 18-20 hrs. It is filed as functional.
Data set [24] concerns Staphylococcus aureus. The data set is described as follows: Antibacterial activity against methicillin-resistant Staphylococcus aureus USA300 infected in BALB/c mouse assessed as reduction in bacterial count administered 72 hrs post infection topically twice daily for 4 days. The settings on record: time 4.0 day. It is filed as functional, organism-based.
Data set [25] concerns Staphylococcus aureus. The data set can be described thus: Potentiation of vancomycin-induced antibacterial activity against vancomycin-resistant Staphylococcus aureus 13 assessed as vancomycin MIC at 0.5 times MIC incubated for 18 to 20 hrs by broth microdilution method. In kind it is functional. Particulars: time 18-20 hrs.
Data set [26] in a line: Cytotoxicity against human HaCaT cells assessed as cell viability at 64 ug/ml incubated for 24 hrs by MTS assay relative to control. It is filed as toxicity, cell-based. Particulars: at 64 µg/mL, read-out: Activity.
For data set [27], the system named is Staphylococcus aureus. The data set can be described thus: Potentiation of vancomycin-induced antibacterial activity against vancomycin-resistant Staphylococcus aureus 1 assessed as vancomycin MIC at 0.5 times MIC incubated for 18 to 20 hrs by broth microdilution method. The settings on record: time 18-20 hrs. It is filed as functional.
Data set [28] has as its system Staphylococcus aureus. The data set is described as follows: Potentiation of vancomycin-induced antibacterial activity against vancomycin-resistant Staphylococcus aureus 12 assessed as vancomycin MIC at 0.5 times MIC incubated for 18 to 20 hrs by broth microdilution method. It is filed as functional. Particulars: time 18-20 hrs.
Data set [29] concerns Staphylococcus aureus. The data set can be described thus: microbe, parasite or virus in culture. Particulars: 13.
Data set [30] deals with Staphylococcus aureus. The data set can be described thus: microbe, parasite or virus in culture. Particulars: 1.
Data set [31] has as its system Staphylococcus aureus. The data set is described as follows: microbe, parasite or virus in culture. The settings on record: 3a.
For data set [32], the system named is Staphylococcus aureus. The data set is described as follows: microbe, parasite or virus in culture. The settings on record: 3b.
Data set [33] concerns Staphylococcus aureus. The data set can be described thus: microbe, parasite or virus in culture. The settings on record: 2.

In brackets after ≈: the same amount, converted by molar mass. Activity calls are given as the source filed them. No cut-off for these calls is given here. Bounds are passed on as bounds.

Consider `C/C(=N\NC(=N)N)c1ccc(NC(=O)Nc2ccc(/C=C/CC(C)C)cc2)cc1`, for which the MIC in the data set with Staphylococcus aureus [1] worked out at 4 µg/mL; with Staphylococcus aureus [4] it was 4 µg/mL (≈ 10.2 µM); in the data set on Staphylococcus aureus [6], 4 µg/mL (≈ 10.2 µM); with Staphylococcus aureus [7], 8 µg/mL (≈ 20.4 µM); against Staphylococcus aureus [8], 4 µg/mL (≈ 10.2 µM); in data set [9], 4 µg/mL (≈ 10.2 µM). Besides, the MIC against Staphylococcus aureus [10] is 4 µg/mL (≈ 10.2 µM); against Staphylococcus aureus [11], 4 µg/mL (≈ 10.2 µM); in the data set with Staphylococcus aureus [13], 2 µg/mL; against Staphylococcus aureus [16] it was 4 µg/mL (≈ 10.2 µM); in the data set with Staphylococcus aureus [17], 2 µg/mL (≈ 5.1 µM); with Staphylococcus aureus [18], 16 µg/mL. Besides, the MIC came out at 8 µg/mL (≈ 20.4 µM) in the data set on Staphylococcus aureus [19]; 16 µg/mL in the data set on Staphylococcus aureus [20]; 4 µg/mL (≈ 10.2 µM) in the data set on Staphylococcus aureus [22]; 8 µg/mL in the data set with Staphylococcus aureus [23]; 16 µg/mL in the data set on Staphylococcus aureus [25]; 4 µg/mL in the data set with Staphylococcus aureus [27]. In the data set with Staphylococcus aureus [28], the MIC was determined as 64 µg/mL. For the same compound, the hemolysis at 0.5 h, 32 ug/ml in data set [2] was less than 10%. Further, the hemolysis at 0.5 h, 64 ug/ml in data set [3] is 50%. For the same compound, the Activity result in the data set with Caco-2 [5] is listed as “Non-Toxic”; in the data set on Erythrocyte it was “Toxic”; in the data set on Caco-2 [21], “Toxic”. Further, the outcome with Staphylococcus aureus [12], in the data set with Staphylococcus aureus [15] and in the data set on Staphylococcus aureus [24] was Active. Also, the Time with Staphylococcus aureus [14] was determined as 5 h. Also, in data set [26], the viability at 24 h, 64 ug/ml amounted to 100%.
For `CN[C@H](CC(C)C)C(=O)N[C@H]1C(=O)N[C@@H](CC(N)=O)C(=O)N[C@H]2C(=O)N[C@H]3C(=O)N[C@H](C(=O)N[C@H](C(=O)O)c4cc(O)cc(O)c4-c4cc3ccc4O)[C@H](O)c3ccc(c(Cl)c3)Oc3cc2cc(c3O[C@@H]2O[C@H](CO)[C@@H](O)[C@H](O)[C@H]2O[C@H]2C[C@](C)(N)[C@H](O)[C@H](C)O2)Oc2ccc(cc2Cl)[C@H]1O` [VANCOMYCIN], the MIC against Staphylococcus aureus [29] was more than 512 µg/mL; in the data set with Staphylococcus aureus [30], 64 µg/mL (≈ 44.2 µM); against Staphylococcus aureus [31], 64 µg/mL (≈ 44.2 µM); in the data set on Staphylococcus aureus [6] it was more than 64 µg/mL; with Staphylococcus aureus [7], 64 µg/mL (≈ 44.2 µM); against Staphylococcus aureus [19], more than 64 µg/mL. The MIC in the data set on Staphylococcus aureus [32] and against Staphylococcus aureus [33] was 64 µg/mL (≈ 44.2 µM) each time. In the data set on Staphylococcus aureus [14], the Time was found to be 3 h.
